For assay [1], the target named is Protein arginine N-methyltransferase 1 (Homo sapiens, UniProt Q99873). The assay is described as follows: Selectivity interaction (Methyltransferase screen (radiometric assays, panel of 8 PRMTs, 21 protein lysine methyltransferases, 3 DNA methyltransferases, and one RNA methyltransferase)) EUB0000271b PRMT1.
The target of assay [2] is Protein-tyrosine kinase 2-beta (Homo sapiens) (UniProt Q14289). Put plainly: Selectivity interaction (KinomeScan (DiscoverX)) EUB0000666a PTK2B. The following applies: at 10 µM.
In a further assay the target is Misshapen-like kinase 1 (Homo sapiens, UniProt Q8N4C8). The assay is described as follows: Selectivity interaction (SelectScreen Kinase Profiling (Thermo Fisher Scientific)) EUB0001558a MINK1. As to conditions: at 1 µM.
Assay [3] deals with Calcium/calmodulin-dependent protein kinase type 1G (Homo sapiens) (UniProt Q96NX5). The assay is described as follows: Selectivity interaction (Kinase panel (DSF assay)) EUB0001558a CAMK1G. Background: Differential scanning fluorimetry follows unfolding on heating by fluorescence.
The target of assay [4] is Dual specificity mitogen-activated protein kinase kinase 2 (Homo sapiens) (UniProt P36507). Put plainly: Selectivity interaction (KinomeScan (DiscoverX)) EUB0000655a MAP2K2. The following applies: at 10 µM.
The target of assay [5] is Mitogen-activated protein kinase 3 (Homo sapiens, UniProt P27361). Put plainly: Selectivity interaction (KinomeScan (DiscoverX)) EUB0001079a MAPK3. The following applies: at 1 µM.
Assay [6] addresses STE20-like serine/threonine-protein kinase (Homo sapiens, UniProt Q9H2G2). The assay is described as follows: Selectivity interaction (ActivX KiNativ screen (ex vivo kinase selectivity in human PBMCs)) EUB0001619a SLK. It counts as cell-based. As to conditions: PBMC, at 1 µM.
The target of assay [7] is T1, Serine/threonine-protein kinase Sgk2 (Homo sapiens) (UniProt Q9HBY8).
T1 sequence (whole entry): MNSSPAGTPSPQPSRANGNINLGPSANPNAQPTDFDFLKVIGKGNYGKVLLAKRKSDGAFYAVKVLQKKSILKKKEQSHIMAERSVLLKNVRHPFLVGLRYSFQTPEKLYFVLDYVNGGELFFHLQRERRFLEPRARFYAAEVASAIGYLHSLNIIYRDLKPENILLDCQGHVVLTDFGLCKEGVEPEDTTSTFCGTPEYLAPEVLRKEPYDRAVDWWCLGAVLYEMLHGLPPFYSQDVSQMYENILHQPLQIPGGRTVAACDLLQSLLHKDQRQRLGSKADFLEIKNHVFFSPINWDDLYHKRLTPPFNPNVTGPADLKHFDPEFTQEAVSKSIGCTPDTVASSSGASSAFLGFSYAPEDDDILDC
Put plainly: Selectivity interaction (Kinase panel (Invitrogen)) EUB0000639a SGK2. The following applies: at 200 nM.

Assay [8] deals with T2, Dual specificity protein kinase TTK (Homo sapiens) (UniProt P33981).
T2 sequence (whole entry): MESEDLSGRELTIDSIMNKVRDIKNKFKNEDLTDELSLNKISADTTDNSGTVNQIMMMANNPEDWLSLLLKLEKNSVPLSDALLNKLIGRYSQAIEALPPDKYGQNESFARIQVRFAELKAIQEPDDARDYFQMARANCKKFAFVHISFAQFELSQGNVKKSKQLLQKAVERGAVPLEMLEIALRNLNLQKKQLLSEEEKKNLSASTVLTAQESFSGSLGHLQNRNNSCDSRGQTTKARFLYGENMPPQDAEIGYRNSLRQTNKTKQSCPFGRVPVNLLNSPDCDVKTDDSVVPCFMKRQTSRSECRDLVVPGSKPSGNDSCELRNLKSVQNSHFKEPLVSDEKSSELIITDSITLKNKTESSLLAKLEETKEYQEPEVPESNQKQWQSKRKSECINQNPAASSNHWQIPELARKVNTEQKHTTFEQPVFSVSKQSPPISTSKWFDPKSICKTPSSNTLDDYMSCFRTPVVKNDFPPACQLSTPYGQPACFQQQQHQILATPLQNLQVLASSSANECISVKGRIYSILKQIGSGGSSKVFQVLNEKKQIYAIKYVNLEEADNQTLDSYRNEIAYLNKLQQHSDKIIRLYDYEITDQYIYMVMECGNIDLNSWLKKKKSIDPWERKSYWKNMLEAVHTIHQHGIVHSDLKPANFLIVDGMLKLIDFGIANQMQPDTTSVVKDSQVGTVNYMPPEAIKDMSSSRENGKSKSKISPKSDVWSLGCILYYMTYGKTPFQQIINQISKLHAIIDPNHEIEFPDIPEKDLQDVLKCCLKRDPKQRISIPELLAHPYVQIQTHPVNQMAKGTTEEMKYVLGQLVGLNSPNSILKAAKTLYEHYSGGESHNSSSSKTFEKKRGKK
Put plainly: Selectivity interaction (Kinase panel (Invitrogen)) EUB0000639a TTK. The following applies: at 200 nM.

The subject of assay [9] is Fibroblast growth factor receptor 3 (Homo sapiens), P22607 [G697C]. The assay is described as follows: (§1) Selectivity interaction (KinomeScan (DiscoverX)) EUB0000699a FGFR3. As to conditions: at 10 µM.
For assay [10], the target named is Fibroblast growth factor receptor 3 (Homo sapiens, UniProt P22607). Described as §1. The following applies: at 10 µM.
For assay [11], the target named is T3, MAP kinase-activated protein kinase 5 (Homo sapiens) (UniProt Q8IW41).
T3 sequence (whole entry): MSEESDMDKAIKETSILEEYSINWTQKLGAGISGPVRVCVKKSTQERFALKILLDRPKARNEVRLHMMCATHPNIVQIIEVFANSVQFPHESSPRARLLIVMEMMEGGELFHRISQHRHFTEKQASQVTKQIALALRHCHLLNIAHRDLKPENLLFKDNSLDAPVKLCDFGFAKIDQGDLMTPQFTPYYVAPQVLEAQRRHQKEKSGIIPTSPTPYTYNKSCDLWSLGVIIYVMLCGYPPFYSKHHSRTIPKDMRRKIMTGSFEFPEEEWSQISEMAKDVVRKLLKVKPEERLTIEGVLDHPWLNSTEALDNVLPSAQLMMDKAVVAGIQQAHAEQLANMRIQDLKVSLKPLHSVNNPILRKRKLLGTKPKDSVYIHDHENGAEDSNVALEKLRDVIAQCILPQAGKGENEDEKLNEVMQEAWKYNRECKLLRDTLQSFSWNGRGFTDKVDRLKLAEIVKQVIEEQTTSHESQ
Put plainly: Selectivity interaction (KinomeScan (DiscoverX)) EUB0000695a MAPKAPK5. The following applies: at 100 nM.

In assay [12] the target is LIM domain kinase 1 (Homo sapiens) (UniProt P53667). The assay is described as follows: Selectivity interaction (ProQinase) EUB0000171b LIMK1.
Assay [13] deals with Serine/threonine-protein kinase PLK2 (Homo sapiens, UniProt Q9NYY3). The assay is described as follows: Selectivity interaction (KinomeScan (DiscoverX)) EUB0000618a PLK2. The following applies: at 10 µM.

SMILES strings stand for the structures.

Chain of Protein arginine N-methyltransferase 1 (Q99873 whole entry, looked up): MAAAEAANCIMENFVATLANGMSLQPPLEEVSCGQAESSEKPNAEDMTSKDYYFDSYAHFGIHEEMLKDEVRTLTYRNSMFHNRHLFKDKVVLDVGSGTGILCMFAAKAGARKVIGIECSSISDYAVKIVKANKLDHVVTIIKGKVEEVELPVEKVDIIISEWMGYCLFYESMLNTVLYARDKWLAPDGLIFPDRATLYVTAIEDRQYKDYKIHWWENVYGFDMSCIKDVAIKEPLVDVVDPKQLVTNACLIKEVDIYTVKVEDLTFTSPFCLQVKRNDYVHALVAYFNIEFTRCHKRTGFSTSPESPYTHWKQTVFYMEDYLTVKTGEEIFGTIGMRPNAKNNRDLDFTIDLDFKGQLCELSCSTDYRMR
Chain of LIM domain kinase 1 (Homo sapiens) (P53667 whole entry, looked up, the tested form may be a part): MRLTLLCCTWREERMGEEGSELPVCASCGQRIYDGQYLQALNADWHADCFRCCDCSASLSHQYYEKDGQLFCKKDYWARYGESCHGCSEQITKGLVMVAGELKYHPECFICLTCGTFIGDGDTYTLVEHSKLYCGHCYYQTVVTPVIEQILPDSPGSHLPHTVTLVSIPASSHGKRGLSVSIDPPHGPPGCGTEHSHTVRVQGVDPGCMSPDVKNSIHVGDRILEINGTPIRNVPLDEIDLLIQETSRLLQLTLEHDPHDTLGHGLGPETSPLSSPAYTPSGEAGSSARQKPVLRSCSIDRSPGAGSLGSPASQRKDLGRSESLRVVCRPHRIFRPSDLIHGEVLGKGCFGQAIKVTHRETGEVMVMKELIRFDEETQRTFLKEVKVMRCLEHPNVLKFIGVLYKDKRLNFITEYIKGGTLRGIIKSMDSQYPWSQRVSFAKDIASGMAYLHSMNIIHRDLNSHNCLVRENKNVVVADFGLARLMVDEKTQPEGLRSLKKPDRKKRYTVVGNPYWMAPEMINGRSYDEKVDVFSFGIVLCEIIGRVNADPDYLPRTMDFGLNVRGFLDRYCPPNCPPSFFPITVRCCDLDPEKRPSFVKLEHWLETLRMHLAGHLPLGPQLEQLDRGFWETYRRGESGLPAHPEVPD
Chain of STE20-like serine/threonine-protein kinase (Q9H2G2 whole entry, looked up): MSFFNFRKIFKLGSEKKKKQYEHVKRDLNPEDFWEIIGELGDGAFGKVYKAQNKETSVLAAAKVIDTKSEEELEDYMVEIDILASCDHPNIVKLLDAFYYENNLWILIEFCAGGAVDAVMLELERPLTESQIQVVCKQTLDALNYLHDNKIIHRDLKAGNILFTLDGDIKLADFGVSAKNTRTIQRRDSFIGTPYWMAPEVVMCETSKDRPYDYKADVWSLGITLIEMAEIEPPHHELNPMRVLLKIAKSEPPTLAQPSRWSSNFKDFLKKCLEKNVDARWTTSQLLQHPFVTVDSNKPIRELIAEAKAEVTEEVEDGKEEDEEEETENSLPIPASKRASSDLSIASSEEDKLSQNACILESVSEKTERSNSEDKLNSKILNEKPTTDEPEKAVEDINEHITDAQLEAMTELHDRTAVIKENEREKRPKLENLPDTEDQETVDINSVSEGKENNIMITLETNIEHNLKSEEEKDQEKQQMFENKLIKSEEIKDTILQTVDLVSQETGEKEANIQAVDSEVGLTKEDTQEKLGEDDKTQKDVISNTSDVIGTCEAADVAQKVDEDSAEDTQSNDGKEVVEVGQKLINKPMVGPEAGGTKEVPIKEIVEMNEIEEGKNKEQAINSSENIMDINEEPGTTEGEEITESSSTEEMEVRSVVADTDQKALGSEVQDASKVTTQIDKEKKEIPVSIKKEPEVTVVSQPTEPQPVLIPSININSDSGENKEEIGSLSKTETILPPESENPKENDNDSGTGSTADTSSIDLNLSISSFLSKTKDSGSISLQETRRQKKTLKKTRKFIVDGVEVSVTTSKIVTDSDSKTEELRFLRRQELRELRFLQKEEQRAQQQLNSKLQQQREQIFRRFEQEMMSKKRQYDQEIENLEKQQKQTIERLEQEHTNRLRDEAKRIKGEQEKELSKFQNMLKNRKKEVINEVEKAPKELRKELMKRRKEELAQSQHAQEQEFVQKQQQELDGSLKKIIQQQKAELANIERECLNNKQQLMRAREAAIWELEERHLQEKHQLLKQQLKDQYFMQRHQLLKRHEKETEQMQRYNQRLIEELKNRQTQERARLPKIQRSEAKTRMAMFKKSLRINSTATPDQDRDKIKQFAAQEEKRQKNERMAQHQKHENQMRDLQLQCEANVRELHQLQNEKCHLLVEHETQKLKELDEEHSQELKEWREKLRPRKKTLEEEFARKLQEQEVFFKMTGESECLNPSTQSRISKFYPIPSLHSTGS
Chain of Calcium/calmodulin-dependent protein kinase type 1G (Homo sapiens) (Q96NX5 whole entry): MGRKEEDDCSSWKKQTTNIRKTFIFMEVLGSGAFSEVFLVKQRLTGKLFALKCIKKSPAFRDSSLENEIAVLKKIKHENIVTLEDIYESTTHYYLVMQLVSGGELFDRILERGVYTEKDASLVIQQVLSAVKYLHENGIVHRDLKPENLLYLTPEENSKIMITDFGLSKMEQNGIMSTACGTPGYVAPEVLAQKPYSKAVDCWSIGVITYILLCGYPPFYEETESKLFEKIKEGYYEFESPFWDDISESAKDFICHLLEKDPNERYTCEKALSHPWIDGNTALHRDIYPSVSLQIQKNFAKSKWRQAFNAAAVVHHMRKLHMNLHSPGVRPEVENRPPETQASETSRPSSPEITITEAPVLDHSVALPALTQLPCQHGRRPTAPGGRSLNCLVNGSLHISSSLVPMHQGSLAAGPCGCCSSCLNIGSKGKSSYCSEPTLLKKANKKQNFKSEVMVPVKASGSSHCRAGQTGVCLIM
Chain of Serine/threonine-protein kinase PLK2 (Q9NYY3 whole entry, looked up): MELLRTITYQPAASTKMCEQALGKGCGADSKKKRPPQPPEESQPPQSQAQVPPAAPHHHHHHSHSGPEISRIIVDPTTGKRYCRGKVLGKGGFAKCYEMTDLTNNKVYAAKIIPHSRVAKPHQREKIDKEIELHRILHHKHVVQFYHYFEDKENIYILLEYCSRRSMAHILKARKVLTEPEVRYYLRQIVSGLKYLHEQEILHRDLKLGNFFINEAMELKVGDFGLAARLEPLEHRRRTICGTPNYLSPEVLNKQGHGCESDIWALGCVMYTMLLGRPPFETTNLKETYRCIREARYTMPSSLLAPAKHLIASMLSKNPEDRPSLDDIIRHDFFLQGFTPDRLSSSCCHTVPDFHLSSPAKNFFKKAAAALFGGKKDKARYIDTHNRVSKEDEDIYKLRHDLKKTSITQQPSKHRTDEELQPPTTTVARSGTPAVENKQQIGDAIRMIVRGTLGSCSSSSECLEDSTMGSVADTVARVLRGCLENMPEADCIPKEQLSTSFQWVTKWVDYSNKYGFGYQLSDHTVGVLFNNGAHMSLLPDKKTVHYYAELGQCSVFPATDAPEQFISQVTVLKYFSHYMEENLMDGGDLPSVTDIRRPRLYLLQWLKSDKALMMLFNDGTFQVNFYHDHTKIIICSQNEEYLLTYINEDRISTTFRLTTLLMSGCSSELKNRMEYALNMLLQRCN
Chain of Dual specificity mitogen-activated protein kinase kinase 2 (Homo sapiens) (P36507 whole entry): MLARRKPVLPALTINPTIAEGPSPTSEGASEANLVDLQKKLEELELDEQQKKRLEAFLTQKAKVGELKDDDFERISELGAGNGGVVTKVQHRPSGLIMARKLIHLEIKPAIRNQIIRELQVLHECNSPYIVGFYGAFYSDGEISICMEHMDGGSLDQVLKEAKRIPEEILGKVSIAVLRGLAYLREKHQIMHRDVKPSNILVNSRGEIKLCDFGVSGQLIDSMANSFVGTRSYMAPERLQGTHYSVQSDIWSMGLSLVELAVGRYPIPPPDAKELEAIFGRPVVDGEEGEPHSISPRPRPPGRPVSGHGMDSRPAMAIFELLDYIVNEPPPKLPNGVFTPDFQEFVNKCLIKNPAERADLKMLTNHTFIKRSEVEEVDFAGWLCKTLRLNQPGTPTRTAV
Chain of Mitogen-activated protein kinase 3 (P27361 whole entry): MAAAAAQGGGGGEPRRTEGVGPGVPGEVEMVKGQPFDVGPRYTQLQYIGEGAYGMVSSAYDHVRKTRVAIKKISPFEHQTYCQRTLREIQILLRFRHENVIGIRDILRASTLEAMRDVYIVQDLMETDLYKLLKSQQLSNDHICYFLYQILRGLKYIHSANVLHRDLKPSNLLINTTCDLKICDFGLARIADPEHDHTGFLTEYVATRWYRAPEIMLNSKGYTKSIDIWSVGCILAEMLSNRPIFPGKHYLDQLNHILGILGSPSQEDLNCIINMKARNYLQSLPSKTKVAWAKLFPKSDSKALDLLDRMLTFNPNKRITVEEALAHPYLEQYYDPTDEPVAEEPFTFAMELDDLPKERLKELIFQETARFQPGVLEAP
Chain of Fibroblast growth factor receptor 3 (P22607 23-806 limits assumed): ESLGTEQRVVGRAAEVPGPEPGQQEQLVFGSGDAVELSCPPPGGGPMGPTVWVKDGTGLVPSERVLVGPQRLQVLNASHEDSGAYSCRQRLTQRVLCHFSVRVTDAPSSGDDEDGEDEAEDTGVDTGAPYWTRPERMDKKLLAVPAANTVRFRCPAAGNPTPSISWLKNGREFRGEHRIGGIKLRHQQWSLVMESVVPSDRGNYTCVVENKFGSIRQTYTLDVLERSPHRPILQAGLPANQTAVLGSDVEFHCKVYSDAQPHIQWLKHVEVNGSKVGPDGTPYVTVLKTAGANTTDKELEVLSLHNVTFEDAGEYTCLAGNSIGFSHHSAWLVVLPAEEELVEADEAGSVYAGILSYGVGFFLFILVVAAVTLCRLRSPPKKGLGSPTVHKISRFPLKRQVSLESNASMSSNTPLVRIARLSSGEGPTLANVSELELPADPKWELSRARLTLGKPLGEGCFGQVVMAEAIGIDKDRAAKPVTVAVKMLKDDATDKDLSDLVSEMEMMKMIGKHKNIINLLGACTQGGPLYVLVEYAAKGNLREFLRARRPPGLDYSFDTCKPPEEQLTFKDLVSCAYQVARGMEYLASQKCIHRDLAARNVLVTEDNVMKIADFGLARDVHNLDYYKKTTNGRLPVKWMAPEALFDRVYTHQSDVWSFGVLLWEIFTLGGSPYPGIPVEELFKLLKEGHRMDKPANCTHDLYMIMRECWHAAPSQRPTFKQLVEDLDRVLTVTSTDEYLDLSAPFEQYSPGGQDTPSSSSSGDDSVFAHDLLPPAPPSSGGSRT

Turning to `Cc1cc(C)cc([C@@H]2c3cc(C)ccc3NC(=O)CN2C(=O)c2ccc(Br)s2)c1`, the % of activity in [1] (at 1 µM) was found to be 98.3%; in assay [1] (at 10 µM) it was 94.3%. Turning to `O=C(NOC[C@H](O)CO)c1ccc(F)c(F)c1Nc1ccc(I)cc1F`, the % of control in assay [2] was 98%. The compound `CC(C)(O)[C@H](F)CN1Cc2cc(NC(=O)c3cnn4cccnc34)c(N3CCOCC3)cc2C1=O` displayed a % of inhibition on Misshapen-like kinase 1 of 80.5%. For the same compound, the dTM in assay [3] came to 0.4 K. Regarding `CN(C)CCOc1ccc(-c2nc(-c3ccncc3)c(-c3ccc4c(c3)CC/C4=N\O)[nH]2)cc1`, the % of control in assay [4] was 91%. In assay [5], `Nc1cnc(N2CCc3cc(S(=O)(=O)Nc4c(F)cc(Cl)cc4F)cc(N4CCCC4=O)c32)nc1` [TP-020n] displayed a % of control of 91%. For `N#Cc1cccc(-c2c[nH]c3ncnc(N4CCOCC4)c23)c1`, the % of inhibition in [6] is 61%. Take `CC[C@@H]1[C@H](F)C(=O)N[C@@H]1COc1nccc2cc(C(N)=O)c(OC)cc12` [ZIMLOVISERTIB]: the % of inhibition was 5.25% in assay [7] and 8.59% in assay [8].

For the compound `CCN(CC)CCCCNc1ncc2cc(-c3cc(OC)cc(OC)c3)c(NC(=O)NC(C)(C)C)nc2n1`, the % of control amounted to 3.7% in assay [9] and 0.1% in assay [10]. `Cc1cc(F)c(C(=O)Nc2cccc(-c3nncn3C(C)C)n2)cc1-n1cnc(C2CC2)c1` gave a % of control in [11] of 76%. In the case of `C=CC(=O)Nc1cccc(C(=O)Nc2ccc(Nc3cc(-c4[nH]c(SC)nc4C)ccn3)cc2)c1`, the % of control is 72% in assay [12] (at 1 µM) and 46% in assay [12] (at 5 µM). Consider `O[C@H]1CC[C@H](Nc2ncc3nc(Nc4c(F)cc(F)cc4F)n([C@H]4CCOC4)c3n2)CC1`, for which the % of control in assay [13] was 100%.

For the origin of these results see ChEMBL document CHEMBL5465560, “Selectivity Literature for EUbOPEN Chemogenomic Library” (2024).
